Source: US5288720A, “Angiotensin II receptor blocking 2,3,6 substituted quinazolinones” (American Cyanamid Company, priority 1993, dated 1994)
Blank lines part the entries; values can stand above or below the compound they belong to.

Assays:
Angiotensin II Receptor = target: T1, Angiotensin II Receptor (Bos taurus, UniProt P25104); assay: Receptor Binding Assay: Binding of [^125 I](Sar^1,Ile^8)AngII to beef adrenal cortex membranes; details: 60 min, room temperature
T1 construct: The brownish tissue forming the adrenal cortex is scraped off and finely minced with scissors before homogenization; from tissue; host or cells: beef adrenal cortex, microsomal membranes (100,000×g pellet); fresh glands from a local slaughter house (Maxwell-Cohen)
T1 sequence (P25104 1-359): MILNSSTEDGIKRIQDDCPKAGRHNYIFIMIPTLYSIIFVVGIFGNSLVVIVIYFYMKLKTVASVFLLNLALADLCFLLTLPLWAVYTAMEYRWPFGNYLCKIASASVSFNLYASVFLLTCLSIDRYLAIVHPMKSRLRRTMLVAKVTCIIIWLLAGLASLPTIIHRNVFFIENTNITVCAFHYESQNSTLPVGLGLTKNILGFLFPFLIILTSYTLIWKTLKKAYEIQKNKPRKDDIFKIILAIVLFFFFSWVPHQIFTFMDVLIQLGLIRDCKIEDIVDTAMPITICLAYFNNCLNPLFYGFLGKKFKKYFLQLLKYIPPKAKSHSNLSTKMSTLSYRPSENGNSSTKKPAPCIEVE
From the text: Beef adrenals are obtained from a local slaughter house (Maxwell-Cohen). [^125 […]. 2200 Ci/mmole, is purchased from Dupont (NEN®, Boston, Mass.). All unlabeled AngII analogs, Dimethylsulfoxide (DMSO), nucleotides, bovine serum albumin (BSA) are purchased from Sigma Chemical Co., St. Louis, Mo. U.S.A. […] Approximately sixteen (16) to twenty (20) beef adrenal glands are processed as follows: fresh adrenal glands received on crushed ice are cleaned of fatty tissues and the tough membranes encapsulating the glands are removed and discarded. The brownish tissue forming the adrenal cortex is scraped off and finely minced with scissors before homogenization. Care is taken to avoid contamination with medullary tissue during dissection. The scraped cortices are suspended in twenty volumes of an ice-cold buffer medium consisting of 10 mM Tris.HCl (pH 7.4 at 22° C.) and containing 1.0 mM EDTA and 0.2M sucrose. Unless otherwise indicated, all subsequent operations are done at 4° C. […] The homogenate is centrifuged first at low speed (3,000×g) for 10 minutes. […] This P2 pellet is discarded and the liquid phase is carefully decanted off in clean centrifuge tubes and recentrifuged at high speed (100,000×g) for 60 minutes. The translucent final pellet is harvested and combined in a small volume (20-50.0 ml) of 50.0 mM Tris.HCl buffer, pH 7.2. A 100 ul aliquot is withdrawn and the protein content of the preparation is determined by the Lowry's method (Lowry, O. H., Rosebrough, […]. and Randall, R. J., Protein measurement with Folin phenol reagent. J. Biol. Chem., […], 265-275, 1951). The pelleted membrane is reconstituted in 50.0 mM Tris.HCl buffer containing 0.1 mM of phenylmethylsulfonyl fluoride (PMSF) to give approximately a protein concentration of 2.5 mg per ml of tissue suspension. […] Receptor Binding Assay: […] In competition studies, experimental compounds are diluted in dimethylsulfoxide (DMSO) and added in 20 ul to wells before the introduction of tissue membranes. […] Assays are performed in triplicate. The wells are left undisturbed for 60 minutes at room temperature. Following incubation, all wells are harvested at once with a Brandel® Harvester especially designed for a 96 well plate (Brandel® Biomedical Research & Development Labs. Inc., Gaithersburg, Md., U.S.A.). The filter discs are washed with 10×1.0 ml of cold 0.9% NaCl to remove unbound ligand. Presoaking the filter sheet in 0.1% polyethyleneimine in normal saline (PEI/Saline) greatly reduces the radioactivity retained by the filter blanks. This method is routinely used. The filters are removed from the filter grid and counted in a Parkard® Cobra Gamma Counter for 1 minutes. (Packard Instrument Co., Downers Grove, Ill, U.S.A.). The binding data are analyzed by the non-linear interactive "LUNDON-1" program (LUNDON SOFTWARE Inc., Cleveland, Ohio U.S.A.).

[1] = tested on: ANGIOTENSIN II VASOPRESSOR RESPONSE; assay: AII Challenge: blockade of angiotensin II vasopressor response in conscious SHR; format: in vivo, rat (Conscious Male Okamoto-Aoki SHR); details: SHR n=2, 3 mg/kg i.v.
From the text: By administering a compound of this invention to a rat, and then challenging with angiotensin II, a blockage of the vasopressor response is realized.
Conscious Male Okamoto-Aoki SHR, 16-20 weeks old, weighing approximately 330 g are purchased from Charles River Labs (Wilmington, Mass.). Conscious rats are restrained in a supine position with elastic tape. The area at the base of the tail is locally anesthetized by subcutaneous infiltration with 2% procaine. The ventral caudal artery and vein are isolated, and a cannula made of polyethylene (PE) 10-20 tubing (fused together by heat) is passed into the lower abdominal aorta and vena cava, respectively. The cannula is secured, heparinized (1,000 I.U./ml), sealed and the wound is closed. The animals are placed in plastic restraining cages in an upright position. The cannula is attached to a Statham P23Db pressure transducer, and pulsatile blood pressure is recorded to 10-15 minutes with a Gould Brush recorder. (Chan et al., (Drug Development Res., 18:75-94, 1989).
Angiotensin II (human sequence, Sigma Chem. Co., St. Louis, MO) of 0.05 and 0.1 ug/kg i.v. is injected into all rats (predosing response). Then a test compound, vehicle or a known angiotensin II antagonist is administered i.v., i.p. or orally to each set of rats. The two doses of angiotensin II are given to each rat again at 30, 60, 90, 120, 180, 240 and 300 minutes post dosing the compound or vehicle. The vasopressor response of angiotensin II is measured for the increase in systolic blood pressure in mmHg. The percentage of antagonism or blockade of the vasopressor response of angiotensin II by a compound is calculated using the vasopressor response (increase in systolic blood pressure) of angiotensin II of each rat predosing the compound as 100%. A compound is considered active if at 30 mg/kg i.v. it antagonized at least 50% of the response.

[2] = AII 0.01 mcg/kg IV (so in the source), 30 min post dose
[3] = AII 0.05 mcg/kg IV, 30 min post dose
[4] = AII 0.05 mcg/kg IV, 60 min post dose
[5] = AII 0.05 mcg/kg IV, 90 min post dose
[6] = AII 0.05 mcg/kg IV, 120 min post dose
[7] = AII 0.05 mcg/kg IV, 180 min post dose
[8] = AII 0.05 mcg/kg IV, 240 min post dose
[9] = AII 0.05 mcg/kg IV, 300 min post dose
[10] = AII 0.1 mcg/kg IV, 60 min post dose
[11] = AII 0.1 mcg/kg IV, 90 min post dose
[12] = AII 0.1 mcg/kg IV, 120 min post dose
[13] = AII 0.1 mcg/kg IV, 180 min post dose
[14] = AII 0.1 mcg/kg IV, 240 min post dose
[15] = AII 0.1 mcg/kg IV, 300 min post dose
[16] = AII 0.1 mcg/kg IV, 30 min post dose

SMILES: CCCCc1nc2ccc(C(O)C3CCCS3(=O)=O)cc2c(=O)n1Cc1ccc(-c2ccccc2-c2nn[nH]n2)cc1 (single isomer, unassigned; isomer 1) [Example 15, 2-Butyl-6-[hydroxy(tetrahydro-2-thienyl)methyl-3-[[2'-(1H-tetrazol-5-yl)[1,1'-biphenyl]-4-yl]methyl]-4(3H)-quinazolinone S,S-dioxide isomer 1]
- IC50 (Angiotensin II Receptor): 110 nM
- % Inhibition of AII vasopressor response [1, 2]: 75%
- Average Change (systolic blood pressure response to AII) [1, 2]: 12.5 mmHg
- % Inhibition of AII vasopressor response [1, 3]: 88%
- Average Change (systolic blood pressure response to AII) [1, 3]: 5 mmHg
- % Inhibition of AII vasopressor response [1, 4]: 73%
- Average Change (systolic blood pressure response to AII) [1, 4]: 11 mmHg
- % Inhibition of AII vasopressor response [1, 5]: 83%
- Average Change (systolic blood pressure response to AII) [1, 5]: 7 mmHg
- % Inhibition of AII vasopressor response [1, 6]: 32%
- Average Change (systolic blood pressure response to AII) [1, 6]: 27.5 mmHg
- % Inhibition of AII vasopressor response [1, 7]: 42%
- Average Change (systolic blood pressure response to AII) [1, 7]: 23.5 mmHg
- % Inhibition of AII vasopressor response [1, 8]: 38%
- Average Change (systolic blood pressure response to AII) [1, 8]: 25 mmHg
- % Inhibition of AII vasopressor response [1, 9]: 26%
- Average Change (systolic blood pressure response to AII) [1, 9]: 30 mmHg
- % Inhibition of AII vasopressor response [1, 10]: 63%
- Average Change (systolic blood pressure response to AII) [1, 10]: 18.5 mmHg
- % Inhibition of AII vasopressor response [1, 11]: 54%
- Average Change (systolic blood pressure response to AII) [1, 11]: 23 mmHg
- % Inhibition of AII vasopressor response [1, 12]: 45%
- Average Change (systolic blood pressure response to AII) [1, 12]: 27.5 mmHg
- % Inhibition of AII vasopressor response [1, 13]: 50%
- Average Change (systolic blood pressure response to AII) [1, 13]: 25 mmHg
- % Inhibition of AII vasopressor response [1, 14]: 50%
- Average Change (systolic blood pressure response to AII) [1, 14]: 25 mmHg
- % Inhibition of AII vasopressor response [1, 15]: 45%
- Average Change (systolic blood pressure response to AII) [1, 15]: 27.5 mmHg

SMILES: CCCCc1nc2ccc(C(C)(O)C3CCN(C)C3=O)cc2c(=O)n1Cc1ccc(-c2ccccc2-c2nn[nH]n2)cc1 (single isomer, unassigned; isomer 1) [Example 47, 2-Butyl-6-1-hydroxy-1-(1-methyl-2-oxo-3-pyrrolidinyl)ethyl]-3-[[2'-[1H(tetrazol-5yl)-[1,1'-biphenyl]-4-yl]methyl-4(3H)-quinazolinone isomer 1]
- IC50 (Angiotensin II Receptor): 40 nM
- % Inhibition of AII vasopressor response [1, 3]: 75%
- Average Change (systolic blood pressure response to AII) [1, 3]: 10 mmHg
- % Inhibition of AII vasopressor response [1, 4]: 75%
- Average Change (systolic blood pressure response to AII) [1, 4]: 10 mmHg
- % Inhibition of AII vasopressor response [1, 5]: 63%
- Average Change (systolic blood pressure response to AII) [1, 5]: 15 mmHg
- % Inhibition of AII vasopressor response [1, 6]: 69%
- Average Change (systolic blood pressure response to AII) [1, 6]: 12.5 mmHg
- % Inhibition of AII vasopressor response [1, 7]: 75%
- Average Change (systolic blood pressure response to AII) [1, 7]: 10 mmHg
- % Inhibition of AII vasopressor response [1, 8]: 38%
- Average Change (systolic blood pressure response to AII) [1, 8]: 25 mmHg
- % Inhibition of AII vasopressor response [1, 9]: 29%
- Average Change (systolic blood pressure response to AII) [1, 9]: 28.5 mmHg
- % Inhibition of AII vasopressor response [1, 16]: 73%
- Average Change (systolic blood pressure response to AII) [1, 16]: 11.5 mmHg
- % Inhibition of AII vasopressor response [1, 10]: 65%
- Average Change (systolic blood pressure response to AII) [1, 10]: 15 mmHg
- % Inhibition of AII vasopressor response [1, 11]: 76%
- Average Change (systolic blood pressure response to AII) [1, 11]: 10 mmHg
- % Inhibition of AII vasopressor response [1, 12]: 82%
- Average Change (systolic blood pressure response to AII) [1, 12]: 7.5 mmHg
- % Inhibition of AII vasopressor response [1, 13]: 59%
- Average Change (systolic blood pressure response to AII) [1, 13]: 17.5 mmHg
- % Inhibition of AII vasopressor response [1, 14]: 29%
- Average Change (systolic blood pressure response to AII) [1, 14]: 30 mmHg
- % Inhibition of AII vasopressor response [1, 15]: 18%
- Average Change (systolic blood pressure response to AII) [1, 15]: 35 mmHg

SMILES: CCCCc1nc2ccc(C(O)C3CCCO3)cc2c(=O)n1Cc1ccc(-c2ccccc2-c2nn[nH]n2)cc1 (stereo not shown) [Example 28]
- IC50 (Angiotensin II Receptor): 130 nM

Continued, values first:

- IC50 (Angiotensin II Receptor): 430 nM
SMILES: CCCCc1nc2ccc(C(O)C3CCCCN(C)C3=O)cc2c(=O)n1Cc1ccc(-c2ccccc2-c2nn[nH]n2)cc1 (single isomer, unassigned; isomer 1) [Example 54, 2-Butyl-6-[(hexahydro-1-methyl-2-oxo-1H-azepin-3-yl)hydroxymethyl]-3-[[2'-(1H-tetrazol-5-yl)[1,1'biphenyl]-4-yl]methyl-4-(3H)-quinazolinone isomer 1]

- IC50 (Angiotensin II Receptor): 150 nM
SMILES: CCCCc1nc2ccc(C(O)C3CCCCN(C)C3=O)cc2c(=O)n1Cc1ccc(-c2ccccc2-c2nn[nH]n2)cc1 (single isomer, unassigned; isomer 2) [Example 55, 2-Butyl-6-[(hexahydro-1-methyl-2-oxo-1H-azepin-3-yl)hydroxymethyl]-3-[[2'-(1H-tetrazol-5-yl)[1,1'-biphenyl]-4-yl]methyl-4(3H)quinazolinone isomer 2]
